Data on five compounds can be found in US6750177B2, “Herbicide combination with acylated aminophenylsulfonylureas” (priority 2002, dated 2004).

Holding throughout (assay type): in vivo
In one data set the test system is Polygonum convolvulus. Description: Herbicidal action (field trials), Polygonum convolvulus. Conditions: Fallopia convolvulus, field trial. As for the experimental part: (§1) The seeds or rhizome pieces of typical harmful plants were planted and grown under natural field conditions. Before the harmful plants had emerged or after the harmful plants had emerged, they were treated, as a rule at the 2- to 8-leaf stage, with various dosages of the compositions according to the invention at a water application rate of 100 to 400 I/ha (converted).
(§2) After the treatment (approx. 4-6 weeks after application), the herbidical activity of the active ingredients or active ingredient mixtures was scored visually by comparing the treated plots with the untreated control plots. Damage and development of all aerial parts of the plants was recorded. Scoring was done on a percentage scale (100% action=all plants dead; 50% action=50% of the plants and green plant parts dead; 0% action=no discernible action=like control plot). The score figures of in each case 4 plots was averaged.
(§3) The results are shown in the tables which follow, the action when using active ingredients (A+B) and (C) independently being stated in brackets.

The test system of a further data set is Maize. As for the experimental part:
as §1, §2, §3

For another data set, the system named is Sorghum verticillata. Description: Herbicidal action (field trials), Sorghum verticillata. The conditions noted are these: 60 g As/ha, field trial. As for the experimental part:
as §1, §2, §3

A further data set has as its system Setaria spp. Description: Herbicidal action (field trials), Setaria spp. The conditions noted are these: field trial. On the procedure:
as §1, §2, §3

Where two headings read alike, the source gives them in different places.

As a reminder, the inhibition is the percentage by which the read-out fell short of the control. Read a high inhibition as a response far below the control. `COc1c(Cl)ccc(Cl)c1C(=O)O` [dicamba (C20), 3,6-dichloro-o-anisic acid]: the inhibition at 60 g/ha in the data set on Polygonum convolvulus (60 g As/ha) turned out to be 35%. The same compound yielded a Maize % damage in the data set with Maize (60 g As/ha, field trial (table part with Polygonum convolvulus)) of 0%.

For the compound `COc1cc(OC)nc(NC(=O)NS(=O)(=O)c2ncccc2C(=O)N(C)C)n1` [nicosulfuron (C15), 2-(4,6-dimethoxypyrimidin-2-yl)-3-(3-dimethylcarbamoyl-2-pyridylsulfonyl)urea], the inhibition at 60 g/ha with Sorghum verticillata worked out at 74%. In the data set with Maize (60 g As/ha, field trial (table part with Sorghum verticillata)), this compound displayed a Maize % damage of 0%.

Consider `COc1nc(C)nc(NC(=O)NS(=O)(=O)c2ccccc2CCC(F)(F)F)n1` [prosulfuron (C42), 1-(4-methoxy-6-methyl-1,3,5-triazin-2-yl)-3-[2-(3,3,3-trifluoropropyl)phenylsulfonyl]urea], for which the inhibition at 40 g/ha in the data set on Setaria spp. (40 g As/ha) was found to be 15%. Moreover, in the data set on Maize (40 g As/ha, field trial (table part with Setaria spp.)), the Maize % damage worked out at 7%.

`N#Cc1cc(Br)c(O)c(Br)c1` [bromoxynil (C33), 3,5-dibromo-4-hydroxybenzonitrile] yielded an inhibition at 240 g/ha in the data set on Polygonum convolvulus (240 g As/ha) of 40%. The compound further came in with a Maize % damage with Maize (240 g As/ha, field trial (table part with Polygonum convolvulus)) of 2%.

In the data set with Setaria spp. (36 g As/ha), `COc1cc(OC)nc(NC(=O)NS(=O)(=O)c2c(C(=O)O)c(Cl)nn2C)n1` [halosulfuron (C40), 3-chloro-5-(4,6-dimethoxypyrimidin-2-ylcarbamoylsulfamoyl)-1-methylpyrazole-4-carboxylic acid] had an inhibition at 36 g/ha of 0%. Besides, the Maize % damage with Maize (36 g As/ha, field trial (table part with Setaria spp.)) is recorded as 3%.
